Data on seven sequences can be found in patent US7528225B2, “Peptide epitopes of apolipoprotein B” (Forskarpapatent I Syd, priority 2001, dated 2009).

Entries after “also recorded” stand apart in the source; their conditions may differ.

In assay [1] the test system is atherosclerosis in apo E knockout mice. The experiment in a line: Peptide immunization of Apo E (−/−) mice on high cholesterol diet: atherosclerotic plaque size and composition. The following applies: for Atherosclerotic plaque in the descending aorta, en face oil red O, in comparison to control (in words): Apo E (−/−) mice vs Alum control; for mean collagen content in the aortic sinus plaques: Trichrome staining; for mean collagen content in the aortic sinus plaques / Total plaque size in aortic sinus / % of plaque in aorta (flat prep.) / Oil red O (+) area (% of aortic sinus plaque) / Aortic arch plaque size: mean ± Std; for Effect on atherosclerosis in the aorta: immunization of apo E knockout mice with single peptide sequence or mixture (Table B); for Total plaque size in aortic sinus: Apo E (−/−) mice, sacrifice at 25 weeks; for % of plaque in aorta (flat prep.): descending thoracic and abdominal aorta, en face, oil red O; for Oil red O (+) area (% of aortic sinus plaque): lipid content of aortic sinus plaque.
Procedure: Apo E (−/−) mice received subcutaneous primary immunization at 6-7 weeks of age, followed by an intra-peritoneal booster 3 weeks later. Mice were fed high cholesterol diet from the onset of immunization and continued until sacrifice at the age of 25 weeks.
Alum was used as immunoadjuvant and mixed with peptide conjugate with 1:1 dilution in volume. The amount of peptide in each immunization was 33 μg/100 μl per injection.
Apo E (−/−) mice from the Jackson Laboratories (Bar Harbor, Me.) received subcutaneous primary immunization at 6-7 weeks of age, followed by an intra-peritoneal booster 3 weeks later. Mice were fed high cholesterol diet from the onset of immunization and continued until sacrifice at the age of 25 weeks. Blood samples were collected 2 weeks after booster and at the time of sacrifice. Mice receiving Alum served as control. […] At the time of sacrifice, mice were anesthetized by inhalation Enflurane. Plasma was obtained by retro-orbital bleeding prior to sacrifice.
To evaluate the effect of peptide immunization on atherosclerosis formation, the plaque size at aortic sinus was assessed, aortic arch and descending thoracic and abdominal aorta. After the heart and aortic tree were perfused with normal saline at physiological pressure, the heart and proximal aorta were excised and embedded in OCT compound (Tissue-Tek) and frozen sectioned. Serial 6-μm-thick sections were collected from the appearance of at least 2 aortic valves to the disappearance of the aortic valve leaflets for aortic sinus plaque evaluation. Typically 3 consecutive sections were on one slide and a total of 25-30 slides were collected from one mouse and every fifth slide was grouped for staining. Ascending aorta and aortic arches upto left subclavian artery were also sectioned and processed similarly. Descending thoracic and abdominal aorta were processed separately for en face evaluation of plaque formation after oil red O staining.
Chicken egg albumin (Sigma) in a concentration of 0.8 g/ml water was mixed 1:1 with glycerol. Sodium azide was added to make a final concentration of sodium azide 0.2%. After descending thoracic and abdominal aorta was cleaned off surrounding tissue and fat, the segment of aorta from left subclavian artery to the level of renal artery was then carefully removed for overnight fixation in Histochoice (Amresco). Aorta was then carefully opened longitudinally and placed with luminal side up on a slide freshly coated with egg albumin solution. After albumin solution became dry, the aorta was stained with Oil red O to assess the extent of atherosclerosis with computer-assisted histomorphometry.

For another assay, the system named is Apo E (−/−) mice. The experiment in a line: Antibody titer against immunized peptide after immunization (mouse serum ELISA). The format is in vivo. The following applies: mouse serum 1/50; immunized group; mean ± Std. The protocol:
Antibody titer measurement. To measure the antibody response after peptide immunization, an ELISA was developed. Antibody titer against immunized peptide was measured using blood collected at 2 weeks after booster and at sacrifice. Antibody response against 3 peptides was also determined in Alum group at the same time-points. In brief, native synthetic peptides diluted in PBS pH 7.4 (20 μg/ml) were absorbed to microtiter plate wells (Nunc MaxiSorp, Nunc, Roskilde, Denmark) in an overnight incubation at 4° C. […] After rinsing, deposition of antibodies directed to the peptides was detected by using biotinylated rabbit anti-mouse Ig antibodies (Dako A/S, Glostrup, Denmark) appropriately diluted in TBS-T. After another incubation for 2 h at room temperature the plates were washed and the bound biotinylated antibodies were detected by alkaline phosphatase conjugated streptavidin (Sigma), incubated for 2 h at room temperature. Using phosphatase substrate kit (Pierce) developed the colour reaction and the absorbance at 405 nm was measured after 1 h of incubation at room temperature. Mean values were calculated after the background was subtracted.
In general terms: ELISA stands for enzyme-linked immunosorbent assay.

In the case of ATRFKHLRKYTYNYQAQSSS [Peptide 2], the “Atherosclerotic plaque in the descending aorta, en face oil red O, in comparison to control (in words)” value (“Atherosclerotic plaque” below) in assay [1] (listed as peptide No. 2) is “substantially reduced atherosclerosis; also recorded: significantly reduced atherosclerotic burden”. Besides, in assay [1], the “mean collagen content in the aortic sinus plaques” value worked out at 40.0±7.7% and the “Effect on atherosclerosis in the aorta” value is recorded as −67.7%. Also, the “macrophage infiltration in the aortic sinus plaques (MOMA-2)” value in assay [1] (immunohistochemistry) was “significantly reduced macrophage infiltration”. Besides, in the assay on Apo E (−/−) mice, the “Increase of antibody titer against immunized peptide after immunization” value came to 2.4±1.0 fold.
Regarding EEEMLENVSLVCPKDATRFK [Peptide 1], the “Atherosclerotic plaque” value in assay [1] (listed as Peptide No 1) was “did not produce a significant reduction in atherosclerosis”. In addition, in assay [1], the “Total plaque size in aortic sinus” value is recorded as 0.48 ± 0.14 mm^2, the “mean collagen content in the aortic sinus plaques” value was found to be 35.6±8.5%, the “% of plaque in aorta (flat prep.)” value is listed as 17 ± 4.3% and the “Effect on atherosclerosis in the aorta” value was −15.4%. Further, in assay [1], the “Oil red O (+) area (% of aortic sinus plaque)” value is reported as 32.0 ± 8.1% and the “Aortic arch plaque size” value was determined as 0.054 ± 0.027 mm^2. Besides, the “Effect of immunisation on the development of atherosclerosis (in words)” value in assay [1] (summary statement) is listed as “lacks total effect”. In addition, the “Increase of antibody titer against immunized peptide after immunization” value with Apo E (−/−) mice stood at 6.1±3.1 fold.
For FPDLGQEVALNANTKNQKIR [Peptide 240], the “Effect on atherosclerosis in the aorta” value in assay [1] worked out at 0%.
With HTFLIYITELLKKLQSTTVM [Peptide 301], in assay [1], the “Atherosclerotic plaque” value is recorded as “substantially reduced atherosclerosis”; the “Total plaque size in aortic sinus” value amounted to 0.46 ± 0.16 mm^2; the “% of plaque in aorta (flat prep.)” value was 8.9 ± 2.2 %; the “Effect on atherosclerosis in the aorta” value is −55.2%. In assay [1], the “Oil red O (+) area (% of aortic sinus plaque)” value stood at 23.8 ± 4.1% and the “Aortic arch plaque size” value worked out at 0.050 ± 0.024 mm^2.
On to IEIGLEGKGFEPTLEALFGK [Peptide 45], for which the “Effect on atherosclerosis in the aorta” value in assay [1] was −47.4%.
On to KTTKQSFDLSVKAQYKKNKH [Peptide 210], for which the “Effect on atherosclerosis in the aorta” value in assay [1] is recorded as −57.9%.
With VISIPRLQAEARSEILAHWS [Peptide 74], the “Effect on atherosclerosis in the aorta” value in assay [1] is recorded as −31.0%.
